This is an account of results in article PMC4946969 (ACS chemical biology, 2016).

The target of assay [1] is T1, S. epidermidis AgrC-I (Staphylococcus epidermidis, UniProt Q5HMY3). In kind it is cell-based. The following applies: for IC50: AgrC-I antagonism dose response, peptide alone, Group-I reporter strain, 24 h.
The target in assay [2] is T1, S. epidermidis AgrC-I. In kind it is cell-based. Conditions: AgrC-I activation dose response in the presence of 50 nM S. epidermidis AIP-II.
For the next assay, the system named is S. epidermidis AgrC-III. Put plainly: AgrC-III modulation, Group-III GFP reporter strain AH3409. Conditions: initial single-concentration screen, 10 μM (Figures S-2, 2A). In kind it is cell-based, Staphylococcus epidermidis.
The subject of the next assay is S. epidermidis AgrC-II. Put plainly: AgrC-II modulation, Group-II GFP reporter strain AH3567. In kind it is cell-based, Staphylococcus epidermidis.

Regarding D-S-V-(C-A-S-Y-A) [AIP-I F8A], on S. epidermidis AgrC-I [1], the IC50 result is reported as “Inactive ^c”. Further, the EC50 entry on S. epidermidis AgrC-I [2] is on record as “Inactive ^c”.

Turning to “I-N-(C-D-F-L-L) [S. aureus AIP-III, reference compound]”, the IC50 entry on S. epidermidis AgrC-I [1] is “Inactive ^c”. In addition, the EC50 result on S. epidermidis AgrC-I [2] is “Inactive ^c”.

Take D-S-V-(C-DA-S-Y-F) [AIP-I D-A5]: the IC50 entry on S. epidermidis AgrC-I [1] was “Inactive ^c”. At S. epidermidis AgrC-I [2], the EC50 entry is on record as “Inactive ^c”.

With D-S-V-(C-A-S-A-F) [AIP-I Y7A], in the assay on S. epidermidis AgrC-III, the “AgrC-III (Group-III) inhibition, single concentration” value is ~ 50%. For the same substance, on S. epidermidis AgrC-I [1], the IC50 result is given as “Inactive ^c”. The “AgrC-II (Group-II) inhibition, single concentration” value in the assay on S. epidermidis AgrC-II (initial single-concentration screen, 10 μM (Figures S-1, 2A)) is listed as ~ 50%. Besides, the EC50 result on S. epidermidis AgrC-I [2] is “Inactive ^c”.

For the substance D-S-V-(C-A-S-DY-F) [AIP-I D-Y7], the IC50 entry against S. epidermidis AgrC-I [1] was “Inactive ^c”. Further, the EC50 entry on S. epidermidis AgrC-I [2] was “Inactive ^c”.

As to “I-N-(C-A-F-L-L) [S. aureus AIP-III D4A, reference compound]”, the IC50 result on S. epidermidis AgrC-I [1] is given as “Inactive ^c”. For the same substance, the “Activity toward Group-II (AgrC-II) at lower concentration” value with S. epidermidis AgrC-II (100 nM (lower-concentration screen 1 μM or 100 nM; Figure 2A)) is “inhibiting exclusively Group-II”. At S. epidermidis AgrC-I [2], the EC50 result is recorded as “Inactive ^c”.

On to D-S-V-(DC-A-S-Y-F) [AIP-I D-C4], for which the IC50 result against S. epidermidis AgrC-I [1] is “Inactive ^c”. Moreover, the EC50 entry at S. epidermidis AgrC-I [2] is reported as “Inactive ^c”.

On to D-S-V-(C-S-S-Y-F) [A5S-2], for which the “AgrC-I dose response behaviour” value at S. epidermidis AgrC-I [1] (two isolated AIP-I A5S products) is “very weak inhibition at low concentrations yet activation at higher concentrations”.

Consider “Y-S-T-(C-D-F-I-M) [S. aureus AIP-I, reference compound]”, for which the IC50 entry against S. epidermidis AgrC-I [1] is given as “Inactive ^c”. The EC50 entry on S. epidermidis AgrC-I [2] is “Inactive ^c”.
